Here are results for 34 compounds from patent publication US10266513B2 (Pfizer Inc., priority 2012, dated 2019).

Usually IC50 stands for the concentration that gives 50% inhibition.

Sequence of human full-length BTK Kinase (Q06187 whole entry): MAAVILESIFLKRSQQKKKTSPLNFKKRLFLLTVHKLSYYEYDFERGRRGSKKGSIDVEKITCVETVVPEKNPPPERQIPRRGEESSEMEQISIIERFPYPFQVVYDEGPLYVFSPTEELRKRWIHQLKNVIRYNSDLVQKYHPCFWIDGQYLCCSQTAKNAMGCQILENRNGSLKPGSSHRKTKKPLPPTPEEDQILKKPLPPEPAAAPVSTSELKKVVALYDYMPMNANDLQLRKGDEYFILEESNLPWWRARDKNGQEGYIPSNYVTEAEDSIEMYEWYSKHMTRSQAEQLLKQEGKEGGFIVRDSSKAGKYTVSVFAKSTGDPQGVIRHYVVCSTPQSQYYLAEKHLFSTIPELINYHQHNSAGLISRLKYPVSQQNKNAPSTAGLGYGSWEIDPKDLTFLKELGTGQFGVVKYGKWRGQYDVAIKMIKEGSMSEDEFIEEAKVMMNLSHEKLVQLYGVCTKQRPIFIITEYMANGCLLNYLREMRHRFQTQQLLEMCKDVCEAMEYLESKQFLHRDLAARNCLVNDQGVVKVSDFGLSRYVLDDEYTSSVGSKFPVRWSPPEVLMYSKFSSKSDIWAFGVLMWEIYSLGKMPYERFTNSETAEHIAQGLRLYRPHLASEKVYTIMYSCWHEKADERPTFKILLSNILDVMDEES

The assay deals with human full-length BTK Kinase (Homo sapiens (Human), UniProt Q06187). In words: Human BTK LanthaScreen Assay (TR-FRET). The assay is classed as biochemical. Particulars: 50 μM ATP, FAM-Srctide peptide substrate, read-out: BTK Inhibition IC50. The source says:
Human BTK LanthaScreen Assay
(In general: Time-resolved FRET reads energy transfer from a long-lived donor to a nearby acceptor.)
For `N#CN1CCCC(n2nc(-c3ccc(Cc4ccc(Cl)cc4)cc3)c(C(N)=O)c2N)C1` (stereo not shown) [Example 86, 5-amino-3-[4-(4-chlorobenzyl)phenyl]-(1-cyanopiperidin-3-yl)-1H-pyrazole-4-carboxamide], the IC50 is 0.0268 µM.

Consider `N#CN1CCCC(n2nc(-c3ccc(C(=O)c4ccccc4)cc3)c(C(N)=O)c2N)C1` (stereo not shown) [Example 87, 5-Amino-3-(4-benzoyl-phenyl)-1-(1-cyano)-piperidin-3-yl-1H-pyrazole-4-carboxylic acid amide], for which the IC50 was determined as 0.0013 µM.

On to `N#CN1CCCC(n2nc(-c3ccc(C(O)c4ccccc4)cc3)c(C(N)=O)c2N)C1` (stereo not shown) [Example 88, 5-amino-1-(1-cyanopiperidin-3-yl)-3-{4-[hydroxy(phenyl)methyl]phenyl}-1H-pyrazole-4-carboxamide], for which the IC50 came to 0.0057 µM.

For `N#CN1CCCC(n2nc(-c3cccc(Oc4ccccc4)c3)c(C(N)=O)c2N)C1` (stereo not shown) [Example 89, 5-amino-1-(1-cyanopiperidin-3-yl)-3-(3-phenoxyphenyl)-1H-pyrazole-4-carboxamide], the IC50 is 0.0077 µM.

Take `N#CN1CCCC(n2nc(-c3cccc(Cc4ccc(Cl)cc4)c3)c(C(N)=O)c2N)C1` (stereo not shown) [Example 92, 5-amino-3-[3-(4-chlorobenzyl)phenyl]-1-(1-cyanopiperidin-3-yl)-1H-pyrazole-4-carboxamide]: the half-inhibitory concentration (IC50) is 0.0734 µM.

In the case of `N#CN1CCCC(n2nc(-c3cccc(Cc4ccc(F)cc4)c3)c(C(N)=O)c2N)C1` (stereo not shown) [Example 93, 5-amino-1-(1-cyanopiperidin-3-yl)-3-[3-(4-fluorobenzyl)phenyl]-1H-pyrazole-4-carboxamide], the IC50 came out at 0.035 µM.

For the compound `N#CN1CCCC(n2nc(-c3cccc(Oc4ccc(F)cc4)c3)c(C(N)=O)c2N)C1` (stereo not shown) [Example 94, 5-Amino-1-(1-cyanopiperidin-3-yl)-3-(3-(4-fluorophenoxy)phenyl)-1H-pyrazole-4-carboxamide], the IC50 turned out to be 0.0502 µM.

As to `N#CN1CCCC(n2nc(-c3cccc(Oc4ccc(OC(F)(F)F)cc4)c3)c(C(N)=O)c2N)C1` (stereo not shown) [Example 95, 5-Amino-1-(1-cyanopiperidin-3-yl)-3-{3-[4-(trifluoromethoxy)phenoxy]phenyl}-1H-pyrazole-4-carboxamide], the IC50 amounted to 0.0792 µM.

For the compound `Cc1ccc(Oc2cccc(-c3nn(C4CCCN(C#N)C4)c(N)c3C(N)=O)c2)cc1F` (stereo not shown) [Example 96, 5-amino-1-(1-cyanopiperidin-3-yl)-3-[3-(3-fluoro-4-methylphenoxy)phenyl]-1H-pyrazole-4-carboxamide], the IC50 came out at 0.0219 µM.

As to `CC(C)c1ccccc1Oc1cccc(-c2nn(C3CCCN(C#N)C3)c(N)c2C(N)=O)c1` (stereo not shown) [Example 97, 5-amino-1-(1-cyanopiperidin-3-yl)-3-[3-(2-isopropylphenoxy)phenyl]-1H-pyrazole-4-carboxamide], the IC50 worked out at 0.0528 µM.

Consider `Cc1ccc(Oc2cccc(-c3nn(C4CCCN(C#N)C4)c(N)c3C(N)=O)c2)cc1` (stereo not shown) [Example 98, 5-amino-1-(1-cyanopiperidin-3-yl)-3-[3-(4-methylphenoxy)phenyl]-1H-pyrazole-4-carboxamide], for which the concentration for half-maximal inhibition (IC50) was determined as 0.0273 µM.

As for `Cc1cc(Oc2cccc(-c3nn(C4CCCN(C#N)C4)c(N)c3C(N)=O)c2)ccc1Cl` (stereo not shown) [Example 99, 5-amino-3-[3-(4-chloro-3-methylphenoxy)-phenyl]-1-(1-cyanopiperidin-3-yl)-1H-pyrazole-4-carboxamide], the IC50 is 0.0156 µM.

Consider `CC(C)c1ccc(Oc2cccc(-c3nn(C4CCCN(C#N)C4)c(N)c3C(N)=O)c2)cc1` (stereo not shown) [Example 100, 5-amino-1-(1-cyanopiperidin-3-yl)-3-[3-(4-isopropylphenoxy)phenyl]-1H-pyrazole-4-carboxamide], for which the half-inhibitory concentration (IC50) was determined as 0.0163 µM.

`Cc1cc(Oc2cccc(-c3nn(C4CCCN(C#N)C4)c(N)c3C(N)=O)c2)ccc1C(C)C` (stereo not shown) [Example 101, 5-amino-1-(1-cyanopiperidin-3-yl)-3-[3-(4-isopropyl-3-methylphenoxy)phenyl]-1H-pyrazole-4-carboxamide]: the half-maximal inhibitory concentration (IC50) stood at 0.0053 µM.

`N#CN1CCCC(n2nc(-c3cccc(Oc4ccc(F)c(F)c4)c3)c(C(N)=O)c2N)C1` (stereo not shown) [Example 105, 5-amino-1-(1-cyanopiperidin-3-yl)-3-[3-(3,4-difluorophenoxy)phenyl]-1H-pyrazole-4-carboxamide]: the concentration for half-maximal inhibition (IC50) stood at 0.0555 µM.

In the case of `N#CN1CCCC(n2nc(-c3cccc(Oc4ccc(OC(F)(F)F)c(F)c4)c3)c(C(N)=O)c2N)C1` (stereo not shown) [Example 106, 5-amino-1-(1-cyanopiperidin-3-yl)-3-{3-[3-fluoro-4-(trifluoromethoxy)phenoxy]phenyl}-1H-pyrazole-4-carboxamide], the concentration for half-maximal inhibition (IC50) turned out to be 0.058 µM.

Regarding `N#CN1CCCC(n2nc(-c3ccc(Oc4ccccc4)nc3)c(C(N)=O)c2N)C1` (stereo not shown) [Example 107, 5-amino-1-(1-cyanopiperidin-3-yl)-3-(6-phenoxypyridin-3-yl)-1H-pyrazole-4-carboxamide], the IC50 was 0.171 µM.

In the case of `N#CN1CCCC(n2nc(-c3ccc(Oc4ccc(Cl)cn4)cc3)c(C(N)=O)c2N)C1` (stereo not shown) [Example 108, 5-amino-3-(4-((5-chloropyridin-2-yl)oxy)phenyl)-1-(1-cyanopiperidin-3-yl)-1H-pyrazole-4-carboxamide], the IC50 is 0.0078 µM.

Turning to `N#CN1CCCC(n2nc(-c3ccc(Oc4ccc(F)cn4)cc3)c(C(N)=O)c2N)C1` (stereo not shown) [Example 111, 5-amino-1-(1-cyanopiperidin-3-yl)-3-{4-[(5-fluoropyridin-2-yl)oxy]phenyl}-1H-pyrazole-4-carboxamide], the IC50 turned out to be 0.119 µM.

For `Cc1ccc(Oc2ccc(-c3nn(C4CCCN(C#N)C4)c(N)c3C(N)=O)cc2)nc1` (stereo not shown) [Example 112, 5-amino-1-(1-cyanopiperidin-3-yl)-3-(4-((5-methylpyridin-2-yl)oxy)phenyl)-1H-pyrazole-4-carboxamide], the IC50 was found to be 0.0165 µM.

On to `N#CN1CCCC(n2nc(-c3ccc(Oc4ncc(F)cc4F)cc3)c(C(N)=O)c2N)C1` (stereo not shown) [Example 115, 5-amino-1-(1-cyanopiperidin-3-yl)-3-{4-[(3,5-difluoropyridin-2-yl)oxy]phenyl}-1H-pyrazole-4-carboxamide], for which the half-inhibitory concentration (IC50) was found to be 0.0037 µM.

For the compound `N#CN1CCC[C@H](n2nc(-c3ccc(Oc4cccc(C(F)(F)F)n4)cc3)c(C(N)=O)c2N)C1` [Example 117], the half-maximal inhibitory concentration (IC50) was found to be 0.0189 µM.

For the compound `N#CN1CCC[C@H](n2nc(-c3ccc(Oc4ncc(Cl)cc4F)cc3)c(C(N)=O)c2N)C1` [Example 119, (S)-5-amino-3-(4-((5-chloro-3-fluoropyridin-2-yl)oxy)phenyl)-1-(1-cyanopiperidin-3-yl)-1H-pyrazole-4-carboxamide], the IC50 was 0.0605 µM.

`N#CN1CCCC(n2nc(-c3ccc(Oc4ccc(F)cc4)cc3Cl)c(C(N)=O)c2N)C1` (stereo not shown) [Example 120, 5-amino-3-[2-chloro-4-(4-fluorophenoxy)phenyl]-1-(1-cyanopiperidin-3-yl)-1H-pyrazole-4-carboxamide]: the IC50 was 0.141 µM.

As for `C[C@H]1CC[C@@H](n2nc(-c3ccc(Oc4ccc(F)cc4F)cc3)c(C(N)=O)c2N)CN1C#N` [Example 122, 5-amino-1-[(3R,6S)-1-cyano-6-methylpiperidin-3-yl]-3-[4-(2,4-difluorophenoxy)phenyl]-1H-pyrazole-4-carboxamide], the concentration for half-maximal inhibition (IC50) was found to be 0.00046 µM.

With `C[C@@H]1CC[C@H](n2nc(-c3ccc(Oc4ccc(F)cc4F)cc3)c(C(N)=O)c2N)CN1C#N` [Example 123, 5-amino-1-[(3S,6R)-1-cyano-6-methylpiperidin-3-yl]-3-[4-(2,4-difluorophenoxy)phenyl]-1H-pyrazole-4-carboxamide], the IC50 turned out to be 0.396 µM.

With `N#CN1CCCC(n2nc(-c3ccc(Sc4ccc(Cl)cc4)cc3)c(C(N)=O)c2N)C1` (stereo not shown) [Example 124, 5-amino-3-{4-[(4-chlorophenyl)thio]phenyl}-1-(1-cyanopiperidin-3-yl)-1H-pyrazole-4-carboxamide], the half-maximal inhibitory concentration (IC50) was found to be 0.00074 µM.

With `N#CN1CCCC(n2nc(-c3ccc(Sc4ccccc4)cc3)c(C(N)=O)c2N)C1` (stereo not shown) [Example 125, 5-amino-1-(1-cyanopiperidin-3-yl)-3-[4-(phenylthio)phenyl]-1H-pyrazole-4-carboxamide], the IC50 amounted to 0.0004 µM.

In the case of `C/C=C/C(=O)N1CCCC(n2nc(-c3ccc(Oc4ccccc4)cc3)c(C(N)=O)c2N)C1` (stereo not shown) [Example 128, 5-amino-1-{1-[(2E)-but-2-enoyl]piperidin-3-yl}-3-(4-phenoxyphenyl)-1H-pyrazole-4-carboxamide], the IC50 is 0.0045 µM.

In the case of `NC(=O)c1c(-c2ccc(Oc3ccccc3)cc2)nn([C@@H]2CCCN(C(=O)/C=C/CO)C2)c1N` [Example 129, 5-amino-1-{(3R)-1-[(2E)-4-hydroxybut-2-enoyl]piperidin-3-yl}-3-(4-phenoxyphenyl)-1H-pyrazole-4-carboxamide], the 50% inhibitory concentration (IC50) was determined as 0.001 µM.

For the compound `NC(=O)c1c(-c2ccc(Oc3ccc(Cl)cc3)cc2)nn([C@@H]2CCCN(C(=O)/C=C/CF)C2)c1N` [Example 132, 5-amino-3-[4-(4-chlorophenoxy)phenyl]-1-{(3R)-1-[(2E)-4-fluorobut-2-enoyl]piperidin-3-yl}-1H-pyrazole-4-carboxamide], the IC50 came out at 0.0011 µM.

Turning to `NC(=O)c1c(-c2ccc(Oc3ccc(Cl)cc3)cc2)nn([C@@H]2CCCN(C(=O)/C=C/C(F)F)C2)c1N` [Example 133, 5-amino-3-[4-(4-chlorophenoxy)phenyl]-1-{(3R)-1-[(2E)-4,4-difluorobut-2-enoyl]piperidin-3-yl}-1H-pyrazole-4-carboxamide], the concentration for half-maximal inhibition (IC50) is 0.00038 µM.

As to `C=C(F)C(=O)N1CCC[C@@H](n2nc(-c3ccc(Oc4ccc(Cl)cc4)cc3)c(C(N)=O)c2N)C1` [Example 134, 5-amino-3-[4-(4-chlorophenoxy)phenyl]-1-[(3R)-1-(2-fluoroacryloyl)piperidin-3-yl]-1H-pyrazole-4-carboxamide], the 50% inhibitory concentration (IC50) was found to be 0.005 µM.

Turning to `N#C/C=C/C(=O)N1CCC[C@@H](n2nc(-c3ccc(Oc4ccc(Cl)cc4)cc3)c(C(N)=O)c2N)C1` [Example 135, 5-amino-3-[4-(4-chlorophenoxy)phenyl]-1-{(3R)-1-[(2E)-3-cyanoprop-2-enoyl]piperidin-3-yl}-1H-pyrazole-4-carboxamide], the 50% inhibitory concentration (IC50) is 0.0012 µM.
